From patent US20110105554A1, “MEANS FOR TREATING MYOSIN-RELATED DISEASES” (KINARIS BIOMEDICALS GMBH, priority 2007, published 2011) come the findings set out here.

For test [1], the system named is human hepatocyte carcinoma cells (Hep G2). Kind of test: cells. The note with it: Homo sapiens, HepG2, 4 h, read-out: half effective concentration EC50, neutral red uptake. As to the method: Cytotoxicity may be assayed by determining the cellular uptake of neutral red. Only living cells are capable of neutral red uptake via an active transport mechanism. For an exemplary workflow of a cytotoxicity assay, see FIG. 16.
FIG. 16: Cytotoxicity assay.
FIG. 22: Cytotoxic testing of KIN-compounds by neutral red uptake assays. (a) human hepatocyte carcinoma cells (Hep G2) were exposed to KIN-43 for 4 h in the in presence of 1% FBS.
We are using a library of common organic molecules and functional groups and are applying an empirical force field description of the nonbonding interactions between a ligand and the binding site in order to build up de novo compounds with spatial and electrostatic properties complementary to the allosteric binding site.

In test [2] the target is rabbit skeletal myosin-2 heavy meromyosin (HMM). Kind of test: Actin-activated ATPase activity, rabbit skeletal myosin-2 HMM. Type of test: biochemical. Particulars: 0 to 150 μM PBP, hyperbolic fit; read-out: Ki, half-maximal inhibition of actin-activated ATPase activity. As for the experimental part: Based on the structure of the myosin-2 motor domain with bound PBP, we performed molecular modeling studies to elucidate the specificity of PBP-binding to myosins from different classes. […] To test the predictions from the modeling studies, we determined actin-activated ATPase activities in the presence of 0 to 150 μM PBP with rabbit skeletal myosin-2 heavy meromyosin (HMM), myosin-5a isolated from chicken brain, and recombinant Dictyostelium myosin class-1, 2 and 5 motor-domain constructs (FIG. 9a). […] The concentrations of PBP required for half-maximal inhibition of the different myosin motors was calculated from fitting the data to hyperbolae. […] To determine the extend to which PBP impairs the coupling between the actin- and nucleotide-binding sites of myosin, we measured the ATP turn-over rates of Dictyostelium myosin-2 and myosin-5b motor domain constructs over the range from 0 to 50 μM F-actin in the absence and presence of 25 μM PBP.
Protein preparation. Rabbit fast skeletal muscle heavy meromyosin (HMM) was prepared as described by Kron and Spudich^9. […]
Steady-state kinetics. Basal and actin-activated Mg^2+-ATPase activities were measured with the NADH-coupled assay^19 in a buffer containing 25 mM HEPES, 25 mM KCl, and 4 mM MgCl2, 0.5 mM DTT at pH 7.0 in the presence of 1 mM ATP at 25° C. […]

In test [3] the test system is myosin-2. Type of test: biochemical. The note with it: 100 μM PBP.
Method: Actin-sliding motility was performed at 25° C. using an Olympus IX81 inverted fluorescence microscope. Experimental flow cells were constructed using bovine serum albumin (0.5 mg/ml in assay buffer)-coated glass slides and nitrocellulose-coated coverslips. Myosins were actin affinity-purified immediately before use, to remove rigor heads^20. Sliding movement was started by adding assay buffer containing 4 mM ATP, 10 mM DTT, 0.5 mg/ml bovine serum albumin, anti-fade solution, and 0.5% methylcellulose to the flow cell. Average sliding velocity was determined from the Gaussian distribution of automatically tracked actin filaments using DiaTrack 3.0 and Origin 7.0.
Test [4] has as its target T1, M761 (myosin-2 motor domain from D. discoideum) (Dictyostelium discoideum, UniProt P08799, C312Y/S249N).
T1 construct: amino acids 3 to 761 of myosin-2 from D. discoideum; His-tag (N); made in house; host or cells: D. discoideum AX3-ORF+ cells
Kind of test: Quench-flow ATP hydrolysis (Pi-burst) with M761. Type of test: biochemical. Particulars: 50 μM PBP. As to the method: Effect of Pentabromopseudilin on ATP binding kinetics to DdMyosin-5b and acto-DdMyosin-5b. (FIG. 10a) Fluorescence transients obtained upon mixing 1 μM DdMyosin-5b with 10 μM mantATP in the absence and presence of 5 μM, 25 μM, 50 μM and 100 μM PBP. Mant-fluorescence was excited at 365 nm and detected after passing through a KV 389 nm cut-off filter. The fluorescent signal of mantATP binding to DdMyosin-5b in the absence of PBP follows a single exponential function (upper curve). The presence of increasing concentrations of PBP lead to reduced amplitudes of the fluorescent signals that are best fit by double exponentials. (FIG. 10b) Plot of the relative amplitudes of mantATP binding to Dd Myosin-5b at different PBP concentrations. […] (FIG. 10c) Fluorescence transients of the ATP induced dissociation of pyrene-acto-DdMyosin-5b in the absence (black curve) and presence (grey curve) of 50 μM PBP. (FIG. 10d) Quench-flow experiments of the ATP hydrolysis reaction upon mixing 5 μM M761 with 25 μM ATP in the absence (solid squares) and presence (open circles) of 50 μM PBP. The Pi-burst (kburst=7.8±0.2 sin the absence and 2.5±0.1 s^−1 in the presence of PBP) was followed by a linear steady-state phase. […]
Quench-flow Experiments. […] The relative amounts of […] and ATP were quantified using a phosphorimager (Fujix BAS1000, Fuji), the software MacBAS V 2.4, TINA V 2.09f, and Origin 7.0.

T1 sequence (P08799 3-761 S249N/C312Y): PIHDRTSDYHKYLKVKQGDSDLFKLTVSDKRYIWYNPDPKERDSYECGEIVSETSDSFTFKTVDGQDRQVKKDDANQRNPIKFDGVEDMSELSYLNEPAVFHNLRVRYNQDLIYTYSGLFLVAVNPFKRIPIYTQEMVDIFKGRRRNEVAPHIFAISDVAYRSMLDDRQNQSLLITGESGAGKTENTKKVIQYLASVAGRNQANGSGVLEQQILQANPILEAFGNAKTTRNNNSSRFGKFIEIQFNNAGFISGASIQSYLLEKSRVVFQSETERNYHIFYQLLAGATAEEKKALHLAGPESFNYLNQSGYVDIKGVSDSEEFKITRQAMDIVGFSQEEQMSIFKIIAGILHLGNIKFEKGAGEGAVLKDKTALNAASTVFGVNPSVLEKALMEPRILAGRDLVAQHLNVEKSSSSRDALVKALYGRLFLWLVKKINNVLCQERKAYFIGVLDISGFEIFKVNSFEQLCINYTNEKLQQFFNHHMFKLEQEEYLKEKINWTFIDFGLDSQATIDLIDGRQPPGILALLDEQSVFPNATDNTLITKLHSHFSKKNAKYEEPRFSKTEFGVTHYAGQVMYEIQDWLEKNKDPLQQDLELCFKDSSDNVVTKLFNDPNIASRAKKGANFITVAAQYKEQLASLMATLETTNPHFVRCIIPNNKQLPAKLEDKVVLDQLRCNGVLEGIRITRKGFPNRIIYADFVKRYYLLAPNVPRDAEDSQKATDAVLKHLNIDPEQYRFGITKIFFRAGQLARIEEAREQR

`Oc1c(Br)cc(Br)cc1-c1[nH]c(Br)c(Br)c1Br` [KIN-43]: the EC50 in test [1] is 0.03 µM. Besides, in test [2], the inhibition constant (Ki) worked out at 23 µM. In addition, the “fold reduction in the average gliding velocity” value in test [3] is 2-to-3 fold. Besides, the Pi-burst rate kburst in test [4] (5 μM M761, 25 μM ATP) was found to be 2.5 ± 0.1 s⁻¹. Further, the “amplitude of the burst” value in test [4] (0.95 in the absence) came to 0.5.

As usually defined, the Ki is the dissociation constant of the complex between target and ligand, obtained from inhibition or displacement.
